In patent US6492137B1, “Response element compositions and assays employing same” (The Salk Institute for Biological Studies, priority 1989, dated 2002):

Experiments:
[1] = target: T1, RARα (Homo sapiens, UniProt P10276); test: Gel retardation DNA-binding assay with RARα-expressing COS cell extracts; set-up: expressed in transfected cells; host or cells: COS cells (whole-cell extract); settings: unlabeled competitor oligonucleotide; COS cell extracts
T1 sequence (P10276 1-462): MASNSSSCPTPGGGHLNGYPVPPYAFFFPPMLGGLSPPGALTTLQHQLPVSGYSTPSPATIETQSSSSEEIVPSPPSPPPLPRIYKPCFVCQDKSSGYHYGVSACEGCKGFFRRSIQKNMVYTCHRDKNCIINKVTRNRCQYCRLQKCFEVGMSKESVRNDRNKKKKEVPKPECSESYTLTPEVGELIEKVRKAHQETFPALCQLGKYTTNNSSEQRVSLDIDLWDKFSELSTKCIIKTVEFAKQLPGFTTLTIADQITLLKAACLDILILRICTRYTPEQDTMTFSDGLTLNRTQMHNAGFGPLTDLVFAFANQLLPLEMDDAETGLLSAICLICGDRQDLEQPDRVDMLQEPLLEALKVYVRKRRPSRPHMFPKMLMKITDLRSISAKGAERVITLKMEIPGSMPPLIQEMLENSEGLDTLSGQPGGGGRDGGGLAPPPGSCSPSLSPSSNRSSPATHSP
Experimental: For DNA binding assays, COS cells were cultured in DMEM with 10% calf bovine serum and transfected by the calcium phosphate method with 20 μg of the pCMX receptor expression plasmid for 6 hours followed by a glycerol shock. After incubating the transfected COS cells for another 48 hours, the cells were harvested to prepare extracts for the DNA binding assay, carried out as described by Damm et al., Nature 339: 593-597 (1989). The extracts were made in 20 mM HEPES (pH 7.4), 0.4 M KCl, 2 mM DTT and 20% glycerol. A similar method was employed to prepare a whole cell extract from F9 stem cells. For the binding, 5 μg (COS) or 10 μg (F9) of proteins was incubated on ice for 20 minutes, first in 20 mM HEPES, 80 mM KCl, 1 mM DTT, 0.1% NP40, 2.5 μg of poly dI/dC, and 10% glycerol (cold competitor oligonucleotides, when included, were added during this pre-incubation period). Then 40 fmole of ^32P-labeled oligonucleotide probe (1-2×10^5 cpm, prepared by filling-in reaction using Klenow polymerase in the presence of α-^32P-dCTP) was added to the reaction mixture, followed by incubation at room temperature for 30 minutes. The receptor-DNA complexes were resolved by electrophoresis through 5% polyacrylamide gel containing 5% glycerol at 6 V/cm at room temperature.
Oligonucleotides listed in FIG. 3 were used as a probe to test specific DNA-binding of the RARα and TRβ in a gel retardation assay. On the βRARE, a faint background binding activity was detected in the mock transfected COS cell extract. […] In each case the result obtained from in vivo transactivation and in vitro DNA binding are consistent.
Using the mobility shift assay, the DNA-binding capacity of extracts from COS cells expressing TRβ and RARα to these sequences was also tested. […] This pattern is consistent with that of the in vivo activation (FIG. 4). A reciprocal pattern was obtained when the same oligonucleotides were used to compete RARα binding to the ^32P-labeled βRARE. […] This provides a striking example of the role of half-site spacing in generating a functional response element.

[2] = system: F9 teratocarcinoma stem cells; test: CAT reporter transfection into RA responsive F9 teratocarcinoma stem cells; type: cell-based, mouse; settings: RA 1 μM, 24 hours; no transfected receptor
Experimental: For cotransfection assays, a monkey kidney cell line CV-1 was kept in Dulbecco's modified Eagle's medium (DMEM) supplemented with 10% charcoal-resin double split calf bovine serum. Transfections were performed via calcium-phosphate precipitation method as described by Umesono, et al. in Cell 57: 1139-1146 (1989), with 0.5 μg of a pRS receptor expression plasmid, 1.0 μg of a reporter CAT plasmid, 5 μg of pRAS-βGAL [Umesono, et al., Cell 57: 1139-1146 (1989)] as an internal control, and 8.5 μg of carrier plasmid pUC19. The cells were transfected for 8 hours; after washing the DNA precipitates, the cells were then incubated for an additional 36 hours with or without the ligand (T3, 100 nM; RA, 1 μM; 1,25-(OH)2 vitamin D3, 100 nM). Cell extracts were prepared for βGAL and CAT assays, as described by Umesono, et al., supra. Transfection of F9 teratocarcinoma cells was carried out employing a similar method except the cells were incubated for 12 hours in the presence of the DNA precipitates, and the RA was added at 1 μM for another 24 hours before harvesting the cells. 2, 5, and 4 μg of the reporter, pRAS-βGAL, and pUC19 were used, respectively.
Similarly, when the same set of reporters as in FIG. 4 were transfected into F9 cells, only MHC-R (5-nucleotide spacer) and TREp are potent RAREs. In contrast, its RARE antecedents (MHC-N, MHC+1, MHC-T) are inert.

[3] = target: T2, TRβ (Homo sapiens, UniProt P10828); test: Gel retardation DNA-binding assay with TRβ-expressing COS cell extracts; set-up: expressed in transfected cells; host or cells: COS cells (whole-cell extract); settings: for TRβ binding to labeled oligonucleotide probe: gel retardation, TRβ COS cell extract; for competition for TRβ binding (mobility shift assay): unlabeled competitor oligonucleotide, COS cells expressing TRβ
T2 sequence (P10828 1-461): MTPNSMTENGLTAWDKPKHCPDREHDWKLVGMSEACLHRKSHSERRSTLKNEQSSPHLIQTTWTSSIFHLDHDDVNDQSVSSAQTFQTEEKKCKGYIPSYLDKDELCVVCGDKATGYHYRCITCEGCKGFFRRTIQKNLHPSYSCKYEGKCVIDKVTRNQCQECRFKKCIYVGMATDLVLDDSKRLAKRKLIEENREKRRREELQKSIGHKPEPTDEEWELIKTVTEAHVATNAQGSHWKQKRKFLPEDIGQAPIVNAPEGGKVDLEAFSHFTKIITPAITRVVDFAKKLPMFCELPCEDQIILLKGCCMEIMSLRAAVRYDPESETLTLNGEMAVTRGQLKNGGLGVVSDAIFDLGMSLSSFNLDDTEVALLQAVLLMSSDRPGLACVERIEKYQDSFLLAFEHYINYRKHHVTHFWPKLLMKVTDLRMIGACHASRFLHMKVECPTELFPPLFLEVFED
In short: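 Extracts of COS cells transfected with pCMX TRβ expression plasmid, 48 h post-transfection; 5 μg protein pre-incubated on ice 20 min with poly dI/dC, then 40 fmole 32P-labelled oligonucleotide 30 min at room temperature. Complexes resolved on 5% polyacrylamide gel.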

Substance	competition for RARα binding to 32P-labeled βRARE [1]	function as RARE in F9 cells [2]	competition for TRβ binding to 32P-labeled MHC-N ([3]; 50-fold excess of unlabeled oligonucleotide, COS cell extracts)	TRβ binding to labeled oligonucleotide probe [3]	TRβ binding to labeled oligonucleotide probe ([3]; listed as MHC-TRE)	competition for TRβ binding (mobility shift assay) [3]
MHC-N: 23-nucleotide core of the wild-type sequence (MHC-TRE) (SEQ ID NO:14) (AGCTGGAGGTGACAGGAGGACAGCAAGCT; DNA, backbone not given here; further chemistry not fully specified)	fails to compete at all	inert	competed	specific binding	high affinity	efficient competition
TREp: optimized palindromic rat growth hormone TRE (SEQ ID NO:10) (AGCTTCAGGTCATGACCTGAGAGCT; DNA, backbone not given here; double-stranded response element with agct overhangs, cloned into reporter plasmid) [reference compound]	effective competitors	potent RAREs	–	–	–	efficient competition
